Assay: In vivo local retention experiment of ^131I-HAMA microgel (SPECT gamma imaging after injection into femoral muscle)
Conditions: rat
Procedure: An experiment was performed to confirm the distribution of ^131I and how long the ^131I-HAMA microgel was maintained at the site injected into the body. After injecting 0.2 mL of a solution of Na^131I and ^131I-HAMA microgel (1 mCi/mL) dispersed in PBS into the femoral muscle of the rat, gamma images were obtained over time with the SPECT imaging system (Infinia Hawkeye 4, GE Healthcare, USA). Within 30 minutes immediately after injection, the radioactivity at the injection site was measured with a counter per second in a dynamic mode. After 30 minutes, an image of the whole rat injected with ^131I over time was obtained in static mode, and gamma counters of major tissues such as the injection site, thyroid gland and stomach were measured.

Which results are given for `[131I-].[Na+]` [^131I solution, Na^131I]?
radiation intensity over time in vivo (after injection into femoral muscle): decreased rapidly; time to flow to the whole body (SPECT image) (intramuscular injection, 200 μCi): 30 min; spreading rate in the body from the injection site (dynamic imaging) (within 30 minutes after injection): faster than that of the ^131I-HAMA microgel; migration of ^131I to other tissues (gamma counts) (injection site, thyroid gland, stomach, bladder): measured in the thyroid gland, stomach, and bladder in addition to the injection site

— patent US20220118124A1, “R[…]-LABELED, PHOTO-CRO[…], AND PREPARATION METHOD THEREFOR” (SNVIA CO., LTD., priority 2019, published 2022)
